{"source": "patent US20020132855A1", "about": "“Use of acetaminophen to prevent and treat arteriosclerosis” (priority 2000, published 2002)", "key": {"isolated LDL [1]": {"tested_on": "isolated LDL", "assay": "Dienes analysis of copper-mediated oxidation of isolated LDL", "design": "species or system New Zealand white rabbits", "details": "0.1 mg/ml LDL from APAP-fed rabbits, 5 μM CuSO4, 37° C., 6 hour period, FIG. 1", "procedure": "LDL Isolation: Plasma LDL was prepared by ultracentrifuation of a blood sample as disclosed in Havel, “The Distribution and Chemical Composition of Ultracentrifugally Separated Lpoproteins in Human Serum,” 34 JI. Clin. Inv. 1345 […], within a density cutoff of 1.020 g/ml to 1.055 g/ml and with the addition of 0.5 mg/ml ethylenediaminetetracetic acid ('EDTA') thereto. After adding a sample of this mixture to a semi-permable bag, the LDL was dialyzed therefrom against a vacuum-degassed 0.01 M Tris solution containing 0.15 M NaCl and 0.1 mg/ml EDTA under dark conditions and at 4° C. for 48 hours, followed by dialysis overnight using the same equipment but with a 0.01M phosphate buffer solution containing 0.15 M NaCl and no EDTA. The dialyzed LDL protein concentrations were then determined via the method set forth in Lowry, 'Protein Measurement with the Folin Phenol Reagent,' 226 J. Biol. Chem. 497-509 (1951). […] Analysis: The kinetics of these copper-mediated oxidation reactions were followed at 10 minute intervals for a total period of 6 hours by monitoring changes in absorbance at 234 nm of each mixture using a Model UV-2101PC spectrophotometer available from Shimadzu. […]"}, "[2]": {"assay": "Total plasma cholesterol levels in cholesterol-fed rabbits", "assay_type": "in vivo, New Zealand white rabbits", "source_text": "Twenty-three, six-week old male New Zealand white rabbits obtained from Myrtle's Rabbitry (Houston, Tex.) and weighing between about 1.8 kg and 2 kg were separated into two groups: Group 1 (experimental) having 12 rabbit/group and Group 2 (control) having 11 rabbits/group. At the beginning of the study, all rabbits were allowed water ad libitum and ate normal rabbit chow. After a two week acclimatization period, all of the rabbits were then placed on normal rabbit chow supplemented with 1% cholesterol (ICN Biochemicals, Inc., Costa Mesa, Calif.), in order to induce fatty streak formation in their blood vessel walls. Rabbits in Group 1 were switched from water to an acetaminophen solution for about a 40 mg/kgrabbit APAP dose. A 40 mg/kg dose of APAP in a 2.5 kg rabbit is equivalent to about a 2800 mg/day dose in a 70 kg human. The other group of rabbits remained on water for the remainder of the study. The cages were monitored daily in order to assure that each rabbit consumed the contents of his respective water bottle. After cannulating the femoral artery and advancing into the distal aorta region of each rabbit, blood was aspirated therefrom for isolation of LDL fraction. The blood of each rabbit was drawn into 1000 U of Heparin sodium in order to prevent coagulation, then the plasma was separated therefrom via centrifugation at 2000 rpm for ten minutes. […]"}, "isolated LDL [3]": {"tested_on": "isolated LDL", "assay": "TBARS analysis of copper-mediated oxidation of isolated LDL", "design": "species or system New Zealand white rabbits", "details": "0.1 mg/ml LDL from APAP-fed rabbits, 5 μM CuSO4, 37° C., 4, 8 and 12 hours", "procedure": "LDL Isolation: Plasma LDL was prepared by ultracentrifuation of a blood sample as disclosed in Havel, “The Distribution and Chemical Composition of Ultracentrifugally Separated Lpoproteins in Human Serum,” 34 JI. Clin. Inv. 1345 […], within a density cutoff of 1.020 g/ml to 1.055 g/ml and with the addition of 0.5 mg/ml ethylenediaminetetracetic acid (‘EDTA’) thereto. After adding a sample of this mixture to a semi-permable bag, the LDL was dialyzed therefrom against a vacuum-degassed 0.01 M Tris solution containing 0.15 M NaCl and 0.1 mg/ml EDTA under dark conditions and at 4° C. for 48 hours, followed by dialysis overnight using the same equipment but with a 0.01M phosphate buffer solution containing 0.15 M NaCl and no EDTA. The dialyzed LDL protein concentrations were then determined via the method set forth in Lowry, ‘Protein Measurement with the Folin Phenol Reagent,’ 226 J. Biol. Chem. 497-509 (1951). […] The concentrations of thiobarbituric acid reactive substances (“TBARS”) in each mixture were then measured with the same spectrophotometer as described by Streinbrecher, et al., “Decrease in reactive amino groups during oxidation or endothelial cell modification of LDL,” Arteriosclerosis 1987;7:135-143."}, "[4]": {"tested_on": "low density lipoprotein (LDL)", "details": "literature report; cited from earlier work"}, "oxysterols in LDL": {"tested_on": "oxysterols in LDL", "assay": "Oxysterol concentrations in LDL isolated from cholesterol-fed rabbits", "assay_type": "in vivo, New Zealand white rabbits", "procedure": "LDL Isolation: Plasma LDL was prepared by ultracentrifuation of a blood sample as disclosed in Havel, “The Distribution and Chemical Composition of Ultracentrifugally Separated Lpoproteins in Human Serum,” 34 JI. Clin. Inv. 1345 […], within a density cutoff of 1.020 g/ml to 1.055 g/ml and with the addition of 0.5 mg/ml ethylenediaminetetracetic acid (‘EDTA’) thereto. After adding a sample of this mixture to a semi-permable bag, the LDL was dialyzed therefrom against a vacuum-degassed 0.01 M Tris solution containing 0.15 M NaCl and 0.1 mg/ml EDTA under dark conditions and at 4° C. for 48 hours, followed by dialysis overnight using the same equipment but with a 0.01M phosphate buffer solution containing 0.15 M NaCl and no EDTA. The dialyzed LDL protein concentrations were then determined via the method set forth in Lowry, ‘Protein Measurement with the Folin Phenol Reagent,’ 226 J. Biol. Chem. 497-509 (1951).\n(§1) Twenty-three, six-week old male New Zealand white rabbits obtained from Myrtle's Rabbitry (Houston, Tex.) and weighing between about 1.8 kg and 2 kg were separated into two groups: Group 1 (experimental) having 12 rabbit/group and Group 2 (control) having 11 rabbits/group. At the beginning of the study, all rabbits were allowed water ad libitum and ate normal rabbit chow.\nAfter a two week acclimatization period, all of the rabbits were then placed on normal rabbit chow supplemented with 1% cholesterol (ICN Biochemicals, Inc., Costa Mesa, Calif.), in order to induce fatty streak formation in their blood vessel walls. Rabbits in Group 1 were switched from water to an acetaminophen solution for about a 40 mg/kgrabbit APAP dose. A 40 mg/kg dose of APAP in a 2.5 kg rabbit is equivalent to about a 2800 mg/day dose in a 70 kg human. The other group of rabbits remained on water for the remainder of the study. The cages were monitored daily in order to assure that each rabbit consumed the contents of his respective water bottle.\nOxo-sterol concentrations in the isolated LDL were also determined by the method set forth in Hughes, et. al., “Cytotoxicity of Oxidized LDL to Porcine Aortic Smooth Muscle Cells Is Associated with the Oxysterols 7-ketocholesterol and 7-hydrocholesterol,” 14(7) Arterioscler. Thromb. 1177-85 (1994). In general, the oxysterols were initially separated from the LDL via a Bligh and Dyer extraction followed by extraction using amino-propyl solid phase extraction columns available from Varian Instruments in order to further separate the lipids by polarity. The oxysterol-containing eluents were then dried therefrom under a nitrogen atmosphere and derivatized with N,O-bis(trimethylsilyl)trifluooroacetamide) (“BSTFA”) in a test tube. 10 μl of cholestane was added to the dried eluent at the time of derivatization as an internal standard. The derivatized samples were then analyzed using a gas chromatograph column having a flame ionization detector .The column program included initial temperature of 250° C. for 2 minutes, followed by temperature increases of 8° C./minute to 325° C., and then a final 8 minute temperature hold at 325° C. The amount of oxysterols in the LDL were then quantitated using known standards by ratio of the peak area of the oxysterol to cholestane. The concentrations of oxysterols are set forth below in Table B: […]"}, "[5]": {"tested_on": "fatty streaks in the blood vessels of rabbits", "assay": "Fatty streak formation in aorta of cholesterol-fed rabbits", "assay_type": "in vivo, New Zealand white rabbits", "details": "rabbits on 1% cholesterol chow, 12 weeks", "source_text": "This investigation used an experimental system in which fatty streaks are induced in the blood vessels of rabbits by incorporation of 1 % cholesterol in their food. For further detail, see A. A. Taylor and C. V. Smith, Circulation 18 I-697 (1999). Similar experimental systems have been used previously for the evaluation of the efficacy of pharmaceutical compounds for treating, preventing, and regressing atherosclerosis. For example, see Daugherty, A., et al., “Probucol Attentuates the Development of Aortic Atherosclerosis in Cholesterol-Fed Rabbits,” 98(2) Br. J. Pharm. 612-18 (1989), which is incorporated by reference herein.\nas §1\nAfter a two week acclimatization period, all of the rabbits were then placed on normal rabbit chow supplemented with 1% cholesterol (ICN Biochemicals, Inc., Costa Mesa, Calif.), in order to induce fatty streak formation in their blood vessel walls. […] The cages were monitored daily in order to assure that each rabbit consumed the contents of his respective water bottle. […]"}, "[6]": {"details": "APAP-fed versus control rabbits"}}}
{"smiles": "CC(=O)Nc1ccc(O)cc1", "note": "[APAP, N-(4-hydroxyphenyl) acetamide]", "values": [{"measurement": "Absorbance at 234 nm of isolated LDL (dienes) versus control", "setting": "isolated LDL [1]", "value": "lower absorbance values"}, {"measurement": "Average Circulating total Plasma Cholesterol Level", "setting": "[2]; APAP-fed rabbits, 1% cholesterol chow, 12 weeks, control 1441 ± 87", "value": "1592 ± 43", "unit": "mg/dL"}, {"measurement": "Amount of circulating cholesterol in the blood plasma versus control", "setting": "[2]; [6]", "value": "did not produce a significant difference"}, {"measurement": "TBARS formed during the LDL oxidation versus control", "setting": "isolated LDL [3]", "value": "comparable"}, {"measurement": "LDL lipid oxidation in vitro", "setting": "[4]", "value": "prevent low density lipoprotein (“LDL”) lipid oxidation in vitro"}, {"measurement": "Average 5b, 6b-epoxide concentration in LDL", "setting": "oxysterols in LDL; APAP-fed rabbits, 1% cholesterol chow, 12 weeks, control 0.24 + 0.05", "value": "0.12 + 0.13 nmol/mg LDL"}, {"measurement": "Average 5a, 6a-epoxide concentration in LDL", "setting": "oxysterols in LDL; APAP-fed rabbits, 1% cholesterol chow, 12 weeks, control 0.49 + 0.08", "value": "0.11 + 0.05 nmol/mg LDL"}, {"measurement": "Average 7bOH-cholesterol concentration in LDL", "setting": "oxysterols in LDL; APAP-fed rabbits, 1% cholesterol chow, 12 weeks, control 1.01 + 0.26", "value": "0.32 + 0.07 nmol/mg LDL"}, {"measurement": "Average 7aOH-cholesterol concentration in LDL", "setting": "oxysterols in LDL; APAP-fed rabbits, 1% cholesterol chow, 12 weeks, control 2.31 + 0.62", "value": "0.58 + 0.12 nmol/mg LDL"}, {"measurement": "Average 7keto-cholesterol concentration in LDL", "setting": "oxysterols in LDL; APAP-fed rabbits, 1% cholesterol chow, 12 weeks, control 3.86 + 1.72", "value": "0.41 + 0.14 nmol/mg LDL"}, {"measurement": "Decrease in 7-alpha hydroxycholesterol values", "setting": "oxysterols in LDL; [6]", "value": 4, "unit": "fold"}, {"measurement": "Decrease in 7-beta hydroxycholesterol values", "setting": "oxysterols in LDL; [6]", "value": 3, "unit": "fold"}, {"measurement": "Decrease in 7-keto cholesterol values", "setting": "oxysterols in LDL; [6]", "value": 9, "unit": "fold"}, {"measurement": "Average Fatty Streak/Total Aortic Area", "setting": "[5]; about 40 mg/kg APAP in drinking water, control 0.58 + 0.06", "value": "0.32 + 0.05"}, {"measurement": "Aortic fatty streak areas versus control", "setting": "[5]; about 40 mg/kg APAP, p<0.001", "value": "significantly reduced aortic fatty streak areas"}]}
